Tests used:
[1] = In vivo PK of ortho phosphate bearing 3-AP prodrugs, single intravenous dose, beagle dog; details: for V/F of 3-AP: 3-AP in dog after i.v. prodrug; for Cmax of 3-AP: equimolar doses (equivalent to 3 mg/kg of 3-AP)
Procedure: The pharmacokinetics of 3-AP prodrugs were characterized following administration of a single intravenous dose of 7.2-8.5 mg/kg of 3-AP phosphate prodrugs (equivalent to 3 mg/kg of 3-AP) to a beagle dog. The animal was dosed once with each prodrug weekly. After each dose, a washout period of at least 6 days was maintained before the next dose was administered. Concentrations of 3-AP (Triapine) and prodrug in serum were determined by HPLC and used to calculate various PK parameters. These PK parameters were compared to those of 3-AP from equimolar doses from a separate study. Mean serum drug concentration versus time data were analyzed by both compartmental and non-compartmental models. AUC, total body clearance (Cl), steady-state volume of distribution (Vd,ss), terminal half-life (T1/2), Cmax, Tmax were calculated for both 3-AP and the prodrugs.
Ortho-phosphate prodrug was shown previously to undergo rapid bioconversion to 3-AP when incubated in vitro with alkaline phosphatase. […] At no time have we been able to detect the presence of the intermediary phenol which is the expected cleavage product. […] The 4-chloro (16), 5-methoxy (9) and 5-fluoro (7) analogs were promising in this regard as reflected in their AUCs and half-lives.
Pharmacokinetic parameters of 3-AP itself following i.v. administration of equimolar doses of the prodrugs are presented in Table 3, below.

[2] = system: M109 murine lung carinoma; experiment: Activity in the M109 Lung Carcinoma Model; assay type: in vivo, Balb/c mice; details: for Relative Activity: CTX=Cytoxan
Excerpt: Twelve (12) 3-AP prodrugs have been evaluated for efficacy and toxicity using the M109 murine lung carinoma model in Balb/c mice. The procedure of the experiment is as follows: eight week aged female Balb/c mice (about 20 grams) were subcutaneously inoculated with 5×10^5/mouse of M109 murine lung carinoma cells at the right flank on day 0. The mice were then randomly grouped and each group consisted of 8-10 mice. 3-AP was used with the Triapine™ formulation while all 3-AP prodrugs were either dissolved or suspended in sterile deionized water. The body weight of mice and the tumor volume were measured twice weekly until the tumor in the control group became necrotic or at least one animal was dead in the control group.

[3] = Solubility in aqueous solution; assay type: physicochemical
[4] = Pharmacokinetic Study in beagle dogs at 20-80 mg/kg; assay type: in vivo, beagle dogs (Canis familiaris); details: 30 and 40 mg/kg level
Procedure: Drug levels were determined for the animals at the intervals which are indicated in attached FIGS. 12-15.

[5] = Rising dose pharmacokinetic and toxicokinetic study in dogs with clinical observations; assay type: in vivo; details: dog, Triapine itself dosed at 3 mg/kg, separate study
Procedure: Initially, both prodrugs were studied at a single dose of 7.5-7.7 mg/kg (equivalent to 3 mg/kg of Triapine).
PK parameters of Triapine and the two prodrugs are presented in Tables 4 and 5 and are compared to those obtained, in a separate study, from administration of 3 mg/kg of Triapine (equivalent to approximately 7.5 mg/kg of prodrugs).
Serum prodrug peak concentrations and AUCs, on the other hand, were not linear with dose, and appeared to be saturated at the doses investigated. Serum concentration-time profiles of prodrugs and Triapine are presented in attached FIGS. 4 and 5. […] The sustained serum Triapine levels were presumably attributable to the high serum levels of prodrugs as well as their low total body clearance.
Treatment-related clinical observations were recorded for both dogs. […] These observations were not present on day 2. The only adverse clinical sign on day 2 was the absence of stool.
Treatment-related clinical observations were recorded for the female treated at 80 mg/kg. […] In addition, the dog was pale (pallor), diarrhea was noted, and had yellow mucous in the stool. All observations were noted on day 1 and the dog was recovered on day 2.

Human serum stability = assay type: in vitro ADME; details: incubation in human serum
Procedure: Bioconversion of prodrugs to 3-AP catalyzed by alkaline phosphatase. The bioactivation of dimethyl para-prodrug and a subset of the ortho phosphate prodrugs was studied using 4.65×10^−5 unit of phosphatase enzyme solution (Type VII-SA, from Bovine Intestinal Mucose, Sigma). Upon incubation with phosphatase, all the prodrugs were converted cleanly to the parent drug 3-AP. Under these experimental conditions, there was no significant increase in the half-life (T1/2) of bioactivation of ortho phosphate prodrugs compared to that of unsubstituted ortho prodrug (Table 1, below). Human serum stability studies were conducted by incubating the prodrugs at 37° C. in human serum.

solid tumors = details: phase 1, patients with solid tumors; cited from earlier work
M109 lung carinoma cells = experiment: Efficacy of 3-AP prodrugs on M109 Lung Carcinoma in Balb/c Mice; assay type: in vivo; details: M109-bearing Balb/c mice
Excerpt: Drug treatment was started on day 5 according to the above schedule. […] The drinking water was autoclaved before use.

[6] = 3-AP in dog serum after i.v. prodrug, equimolar doses
[7] = 3-AP in dog serum after i.v. prodrug
[8] = prodrug in dog serum, single i.v. dose 7.2-8.5 mg/kg
[9] = prodrug in dog serum, single i.v. dose 7.2-8.5 mg/kg (equivalent to 3 mg/kg of 3-AP)
[10] = prodrug in dog, single i.v. dose 7.2-8.5 mg/kg
[11] = 60QD mpk ip, day 3-7, 10-14, 17-21
[12] = 5.5 (bid) mpk ip, day 3-7, 10-14
[13] = 100QD mpk ip, day 3-7, 10-14, 17-21

SMILES | V/F of 3-AP ([1]; equimolar doses) | AUC of 3-AP [1, 6] | T1/2 of 3-AP [1, 6] | Cmax of 3-AP [1, 7] | AUC of prodrug [1, 8] | T1/2 of prodrug [1, 8] | Cmax of prodrug [1, 9] | Cl of prodrug [1, 10] | Vss of prodrug [1, 10] | BW Loss (%) [2, 11] | Inhibition (%) [2, 11] | Relative Activity [2, 11] | other results
NC(=S)N/N=C/c1ncccc1NC(=O)OCc1cc(Cl)cc(Cl)c1OP(=O)(O)O [3,5-Di-Cl-(12)] | 3.99 L/kg | 163 µg·min/L | 0.9 h | 2.1 µg/mL | 6939 µg·min/L | 0.567 h | 140 µg/mL | 1.2 mL/min/kg | 0.08 L/kg | 9.0% | 58% | <CTX | –
NC(=S)N/N=C/c1ncccc1N [3-AP (1A)] | – | – | – | – | – | – | – | – | – | – | – | – | solubility in aqueous solution [3]: less than 0.1 mg/ml; half life of 3-AP itself in the dog ([1]; 3-AP itself dosed, dog serum): ~1.5 h; toxicity to the animals [4]: toxic; BW Loss (%) [2, 12]: 8.09%; Inhibition (%) [2, 12]: 60%; Relative Activity [2, 12]: <CTX; Cmax ([5]; Table 5): 2.3 µg/mL; AUC of Triapine [5]: 124 mg·min/L; Cmax of Triapine [5]: 2.3 µg/mL; V/F of Triapine [5]: 3.57 L/kg
Cc1cccc(COC(=O)Nc2cccnc2/C=N/NC(N)=S)c1OP(=O)(O)O [3-CH3-(15)] | 5.18 L/kg | 998 µg·min/L | 7.8 h | 1.5 µg/mL | 66756 µg·min/L | 5.3 h | 147 µg/mL | 0.11 mL/min/kg | 0.08 L/kg | – | – | – | Tmax of 3-AP [1, 6]: 7.8 min; BW Loss (%) ([2]; 60QD mpk ip, day 3-7, 10-14): 7.9%; Inhibition (%) ([2]; 60QD mpk ip, day 3-7, 10-14): 64%; Relative Activity ([2]; 60QD mpk ip, day 3-7, 10-14): <CTX
NC(=S)N/N=C/c1ncccc1NC(=O)OCc1cc(Cl)c(Cl)cc1OP(=O)(O)O [4,5-Di-Cl-(13)] | 3.14 L/kg | 392 µg·min/L | 1.7 h | 2.7 µg/mL | 21499 µg·min/L | – | 220 µg/mL | – | – | 10.0% | 57% | <CTX | –
COc1ccc(COC(=O)Nc2cccnc2/C=N/NC(N)=S)c(OP(=O)(O)O)c1 [4-CH3O (17)] | – | – | – | – | – | – | – | – | – | – | – | – | Half-life, Human Serum 37° C. (Human serum stability): 13.3 h
NC(=S)N/N=C/c1ncccc1NC(=O)OCc1c(OP(=O)(O)O)ccc(Cl)c1Cl [5,6-Di-Cl-(14)] | 2.32 L/kg | – | 1.6 h | 3.6 µg/mL | 34211 µg·min/L | – | 202 µg/mL | – | – | 7.0% | 59% | <CTX | –
NC(=S)N/N=C/c1ncccc1NC(=O)OCc1cc(C(F)(F)F)ccc1OP(=O)(O)O [5-CF3-(11)] | 2.74 L/kg | 280 µg·min/L | 1.1 h | 3.0 µg/mL | 9579 µg·min/L | 0.717 h | 156 µg/mL | 0.86 mL/min/kg | 0.08 L/kg | – | – | – | BW Loss (%) [2, 13]: 9.1%; Inhibition (%) [2, 13]: 77%; Relative Activity [2, 13]: <CTX
NC(=S)N/N=C/c1ccc(O)cn1 [5-HP] | – | – | – | – | – | – | – | – | – | – | – | – | activity in patients (solid tumors): inactive
NC(=S)N/N=C/c1ncccc1NC(=O)OCc1cc([N+](=O)[O-])ccc1OP(=O)(O)O [5-NO2-(8)] | 4.27 L/kg | 84 µg·min/L | 0.5 h | 1.9 µg/mL | 3396 µg·min/L | 0.317 h | 126 µg/mL | 2.33 mL/min/kg | 0.12 L/kg | 9.7% | 33% | <<CTX | –
NC(=S)N/N=C/c1ncccc1NC(=O)OCc1ccccc1OP(=O)(O)O [Ortho- (3), reference compound] | – | 698 µg·min/L | – | – | 63309 µg·min/L | – | – | – | – | – | – | – | Cmax ([1]; beagle, iv, prodrug in dog serum, single i.v. dose 7.2-8.5 mg/kg (equivalent to 3 mg/kg of 3-AP)): 125 µg/mL; half-life ([1]; beagle, iv, prodrug in dog serum, single i.v. dose 7.2-8.5 mg/kg, read-out: T1/2 of prodrug (converted)): 5.9 h; clearance ([1]; beagle, serum, iv, prodrug in dog, single i.v. dose 7.2-8.5 mg/kg, read-out: Cl of prodrug): 0.11 mL/min/kg; Vd ([1]; beagle, serum, iv, prodrug in dog, single i.v. dose 7.2-8.5 mg/kg, read-out: Vss of prodrug): 0.14 L/kg; reason treatment was stopped before the end of the experiment (M109 lung carinoma cells): severe toxic reactions or mortality of the mice; toxicity to the animals [4]: toxic; BW Loss (%) ([2]; 48QD mpk ip, day 5-9, 12-16): 12.6%; Inhibition (%) ([2]; 48QD mpk ip, day 5-9, 12-16): 70%; Relative Activity ([2]; 48QD mpk ip, day 5-9, 12-16): <CTX; activity versus cytoxan ([2]; M-109 solid tumor bearing mice): comparable activity to that of cytoxan; efficacy and toxicity versus parent 3-AP ([2]; M-109 solid tumor bearing mice): better efficacy with reduced toxicity than the parent 3-AP; efficacy on M109 lung carcinoma compared with the 3-AP parent drug at the MTD ([2]; mice): better efficacy
N/C(S)=N/N=C/c1ncccc1NC(=O)OCc1ccc(OP(=O)(O)O)cc1 [Para- (2), reference compound] | – | 74.5 µg·min/L | – | – | – | – | – | – | – | – | – | – | –
